Experimental data: ChEMBL document CHEMBL1130072, “Probing the active sites of monoamine oxidase A and B with 1,4-disubstituted tetrahydropyridine substrates and inactivators” (J Med Chem, 1997)

Columns and labels:
[1] = biological target: T1, Amine oxidase [flavin-containing] A (Homo sapiens, UniProt P21397); assay: Vmax/Km values for MAO-A; parameters: unit not given here
T1 sequence (P21397 whole entry): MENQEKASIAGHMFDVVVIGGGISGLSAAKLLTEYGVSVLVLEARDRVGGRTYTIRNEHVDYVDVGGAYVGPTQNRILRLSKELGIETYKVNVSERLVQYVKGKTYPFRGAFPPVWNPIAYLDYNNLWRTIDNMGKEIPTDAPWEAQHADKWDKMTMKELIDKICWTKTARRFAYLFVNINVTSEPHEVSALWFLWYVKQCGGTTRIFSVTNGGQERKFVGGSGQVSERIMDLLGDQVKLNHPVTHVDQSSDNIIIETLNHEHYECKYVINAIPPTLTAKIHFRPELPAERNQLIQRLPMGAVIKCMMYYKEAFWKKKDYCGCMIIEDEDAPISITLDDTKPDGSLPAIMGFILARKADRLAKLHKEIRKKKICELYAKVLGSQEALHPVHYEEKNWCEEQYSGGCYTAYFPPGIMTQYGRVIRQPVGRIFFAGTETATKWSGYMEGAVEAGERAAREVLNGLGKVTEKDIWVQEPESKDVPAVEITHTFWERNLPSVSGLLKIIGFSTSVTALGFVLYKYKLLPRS

[2] = biological target: T2, Amine oxidase [flavin-containing] B (Homo sapiens, UniProt P27338); assay: Vmax/Km values for MAO-B; parameters: unit not given here
T2 sequence (P27338 whole entry): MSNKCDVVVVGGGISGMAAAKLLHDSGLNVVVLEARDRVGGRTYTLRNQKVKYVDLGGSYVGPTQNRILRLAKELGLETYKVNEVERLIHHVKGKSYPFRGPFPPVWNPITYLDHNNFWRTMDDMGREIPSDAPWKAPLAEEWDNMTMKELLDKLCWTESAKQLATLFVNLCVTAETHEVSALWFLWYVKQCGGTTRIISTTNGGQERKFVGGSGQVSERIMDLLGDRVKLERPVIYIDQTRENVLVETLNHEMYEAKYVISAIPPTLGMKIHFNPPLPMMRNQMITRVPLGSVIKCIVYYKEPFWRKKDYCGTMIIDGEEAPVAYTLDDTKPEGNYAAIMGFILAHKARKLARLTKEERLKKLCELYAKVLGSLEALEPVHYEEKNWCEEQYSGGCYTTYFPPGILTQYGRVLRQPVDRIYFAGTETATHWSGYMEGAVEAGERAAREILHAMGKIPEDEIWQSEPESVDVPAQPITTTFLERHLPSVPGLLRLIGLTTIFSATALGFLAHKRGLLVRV

[3] = biological target: T1, Amine oxidase [flavin-containing] A; assay: Tested for maximum velocity of monoamine oxidase A catalyzed oxidation; parameters: unit not given here
[4] = biological target: T3, Amine oxidase [flavin-containing] B (Bos taurus, UniProt P56560); assay: Tested for maximum velocity of monoamine oxidase B catalyzed oxidation; parameters: unit not given here
T3 sequence (P56560 whole entry): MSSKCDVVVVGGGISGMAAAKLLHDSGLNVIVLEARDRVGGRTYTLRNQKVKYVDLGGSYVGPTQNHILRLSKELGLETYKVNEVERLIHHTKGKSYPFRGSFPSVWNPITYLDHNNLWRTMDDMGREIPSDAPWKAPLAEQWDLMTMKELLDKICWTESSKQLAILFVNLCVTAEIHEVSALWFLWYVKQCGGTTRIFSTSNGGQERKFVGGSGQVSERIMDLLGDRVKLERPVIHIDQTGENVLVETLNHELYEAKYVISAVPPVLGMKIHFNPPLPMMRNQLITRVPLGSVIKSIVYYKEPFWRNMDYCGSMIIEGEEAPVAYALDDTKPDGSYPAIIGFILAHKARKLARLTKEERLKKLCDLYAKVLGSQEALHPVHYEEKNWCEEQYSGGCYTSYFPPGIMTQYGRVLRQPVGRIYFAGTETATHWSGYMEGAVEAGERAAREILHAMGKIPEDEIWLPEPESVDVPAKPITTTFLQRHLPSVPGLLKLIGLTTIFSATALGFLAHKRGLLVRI

[5] = biological target: T4, Monoamine oxidase (Homo sapiens, UniProt P21397+P27338); assay: Selectivity Coefficient measured as ratio of Vmax/Km value of MAO-B to that of MAO-A; format: protein assay
T4 sequence (P21397 whole entry): T1 sequence (P21397 whole entry)
T4 sequence (P27338 whole entry): T2 sequence (P27338 whole entry)

[6] = biological target: T3, Amine oxidase [flavin-containing] B; assay: Tested for Kinetic data against the monoamine oxidase B catalyzed oxidation.
[7] = biological target: T1, Amine oxidase [flavin-containing] A; assay: Tested for Kinetic data against the monoamine oxidase A catalyzed oxidation.
[8] = biological target: T1, Amine oxidase [flavin-containing] A; assay: Tested for Kinetic data against the monoamine oxidase A catalyzed oxidation;NSD = No substrate properties detected
[9] = biological target: T1, Amine oxidase [flavin-containing] A; assay: Tested for inhibition- binding affinity against monoamine oxidase A catalyzed oxidation; NID = no inactivation properties detected.
[10] = biological target: T1, Amine oxidase [flavin-containing] A; assay: Tested for Km, the substrate concentration with gives half maximum velocity of the monoamine oxidase A catalyzed oxidation; NSD = no substrate properties detected
[11] = biological target: T3, Amine oxidase [flavin-containing] B; assay: Tested for Km, the substrate concentration with gives half maximum velocity of the monoamine oxidase B catalyzed oxidation; NSD = no substrate properties detected
[12] = biological target: T3, Amine oxidase [flavin-containing] B; assay: Tested for inhibition- binding affinity against monoamine oxidase B catalyzed oxidation; NID = no inactivation properties detected.

Compound: CN1CC=C(c2ccc3ccccc3c2)CC1
- Ratio [1]: 443
- Ratio [2]: 71
- Vmax [3]: 204
- Vmax [4]: 42

Compound: CN1CC=C(c2ccccc2)CC1
- Ratio [1]: 143
- Selectivity coefficient [5]: 3.65
- Ratio [2]: 523
- Vmax [3]: 20
- Vmax [4]: 204

Compound: CN1CC=C(c2cccc3ccccc23)CC1
- Ratio [1]: 862
- Ratio [2]: 364
- Vmax [3]: 526
- Vmax [4]: 51

Compound: CCc1ccccc1C1=CCN(C)CC1
- Vmax / Km [6]: 4920 M⁻¹ s⁻¹
- Vmax / Km [7]: 11500 M⁻¹ s⁻¹
- Selectivity coefficient [5]: 0.43

Compound: CC(C)c1ccccc1C1=CCN(C)CC1
- Vmax / Km [6]: 850 M⁻¹ s⁻¹
- Vmax / Km [7]: 18700 M⁻¹ s⁻¹
- Selectivity coefficient [5]: 0.05

Compound: CN1CC=C(c2c[nH]c3ccccc23)CC1.O=C(O)C(=O)O
- Vmax / Km [6]: 6620 M⁻¹ s⁻¹
- Vmax [4]: 358

Compound: COc1cccc(C2=CCN(C)CC2)c1
- Vmax / Km [6]: 15600 M⁻¹ s⁻¹
- Vmax / Km [8]: No substrate detected

Compound: CN1CC=C(c2cccc(Oc3ccccc3)c2)CC1
- Vmax / Km [7]: 92800 M⁻¹ s⁻¹

Compound: C1=C(c2ccc(-c3ccccc3)cc2)CCN(C2CC2)C1
- Ki [9]: No inhibition

Compound: CN1CC=C(c2cccc(-c3ccccc3)c2)CC1
- Ratio [2]: 157
- Km [10]: No substrate detected
- Vmax [4]: 153

Compound: CN1CC=C(c2ccc(-c3ccccc3)cc2)CC1
- Km [11]: No substrate detected
- Km [10]: No substrate detected

Compound: Cc1ccccc1C1=CCN(C)CC1
- Vmax / Km [6]: 21470 M⁻¹ s⁻¹
- Vmax / Km [7]: 9800 M⁻¹ s⁻¹
- Selectivity coefficient [5]: 2.19

Compound: C1=C(c2ccccc2-c2ccccc2)CCN(C2CC2)C1
- Ki [12]: No inhibition

Compound: Cc1cccc(C2=CCN(C)CC2)c1
- Vmax / Km [6]: 10800 M⁻¹ s⁻¹
- Vmax / Km [7]: 1270 M⁻¹ s⁻¹
- Selectivity coefficient [5]: 8.5

Compound: CN1CC=C(c2ccccc2-c2ccccc2)CC1
- Ratio [1]: 892
- Ratio [2]: 12
- Vmax [3]: 107
- Vmax [4]: 20
